Reference: paper PMC8712300 (European Journal of Nuclear Medicine and Molecular Imaging, 2021)
Several values for one entry are separate records, joined by “and”; a condition that tells them apart may be missing. Identical values can stand only once. Like-named read-outs stand apart in the source and are kept apart here.

How the values were obtained:
[1] = target: central benzodiazepine receptor (CBR); settings: read-out: Ki CBR; displacement of [^3H]flunitrazepam, rat cerebral cortex
Procedure: (§1) The binding assay was performed following a previously published procedure [22], with slight modifications.

[2] = target: T1, TSPO (Rattus norvegicus, UniProt P16257); experiment: biochemical
Procedure: as §1

[3] = target: TSPO-WT (HAB) (Homo sapiens, UniProt P30536, T147A); experiment: biochemical
[4] = target: TSPO-mutant A147T (LAB) (Homo sapiens, UniProt P30536); experiment: biochemical
[5] = target: T1, TSPO
[6] = target: T1, TSPO; remark: listed apart in the source
Procedure: Male Sprague–Dawley rats (7–8 weeks old, Orientbio Inc.) were used to create rat models of neuroinflammation and ischemic stroke (n = 4 for each model). An acute neuroinflammation rat model was generated by injecting lipopolysaccharides (LPS, 50 μg) into the right striatum of rat brain according to our previous protocol [26]. […] In the case of LPS-induced neuroinflammatory model, rats were anesthetized with ketamine hydrochloride (50 mg/kg) and xylazine hydrochloride (0.2 mg/kg) before LPS injection.
The PET imaging study was performed using a dedicated animal PET/CT scanner (NanoPET/CT; Mediso Inc., Budapest, Hungary) with a 10-cm axial field-of-view (FOV) and a 12-cm transaxial FOV. Before PET imaging, the rats were anesthetized with 2% isoflurane. […]
(§2) The volumes of interest (VOIs) were drawn around the peak PET activity on the ipsilateral region in a coronal PET/CT slice, and symmetrically pasted into the contralateral side on the same slice to yield a contralateral VOI of identical volume and shape. […] Decay-corrected radioactivity in the VOI was expressed as the standardized uptake value (SUV), which was normalized to the injected radioactivity and body weight of the rat using PMOD software version 3.6 (PMOD Technologies Ltd., Zurich, Switzerland). […] The binding potential (BPND) was also calculated as a quantitative value, which represented the receptor binding with the radioligand. […]

[7] = 37 °C, 120 min
Procedure: Aliquots (0.2 mL) were collected at 0, 15, 30, 60, and 120 min and mixed with acetonitrile (0.2 mL), and then centrifuged at 3500 rpm for 5 min. The resulting supernatants were analyzed using a radio-TLC scanner with the developing solvent (50% ethyl acetate-hexane).

[8] = in vitro; settings: rat, rat plasma
Procedure: (§3) Plasma protein binding (PPB) was measured using two plasma samples obtained from five rats and a healthy volunteer. […] The mixtures were transferred to the Amicon® Ultra 30 K device (Merck Millipore, USA), and centrifuged at 12,000 rpm for 15 min. […] The plasma-free fraction (fP) was calculated as fp = (APfree /APtotal)/(ASfree/AStotal).

[9] = in vitro; settings: human, human plasma
Procedure: as §3

[10] = normal mice, PET 90 min
Procedure: Normal male C57BL/6 mice (n = 4, 6–7 weeks old, Orientbio Inc.) were used to perform in vivo organ distribution and dosimetry studies (see methodological details in the SI).
All the mice (n = 4) were anesthetized with 2% isoflurane. […] The CT images were used to draw region of interest (ROI) on the following organs: the brain, heart, lung, liver, stomach, urinary bladder, intestine kidneys and adrenals. […] The accumulated activity for each organ were calculated by using the area under curve (AUC) of TACs.

[11] = target: T1, TSPO; remark: listed apart in the source
Source text: Male Sprague–Dawley rats (7–8 weeks old, Orientbio Inc.) were used to create rat models of neuroinflammation and ischemic stroke (n = 4 for each model). […] An ischemic stroke rat model was generated via 60-min occlusion of the right middle cerebral artery (MCAO), as previously described [27]. […] In the case of ischemic stroke model, rats were anesthetized with 5% isoflurane in the presence of 30% nitrous oxide and 70% oxygen, and then were under anesthesia with 2% isoflurane in the presence of 30% nitrous oxide and 70% oxygen during MCAO surgery.
The PET imaging study was performed using a dedicated animal PET/CT scanner (NanoPET/CT; Mediso Inc., Budapest, Hungary) with a 10-cm axial field-of-view (FOV) and a 12-cm transaxial FOV. […]
as §2

[12] = physchem; settings: n-octanol/PBS
Procedure: (§4) After vortexing for 1 min, each tube was placed on a table at 25 °C for 3 min. Samples of each phase (100 μL) were counted for radioactivity using a gamma-counter. Log D is expressed as the logarithm of the ratio of the count of n-octanol to that of PBS.

[13] = not given; remark: listed apart in the source
[14] = n-octanol/PBS pH 7.4, individual replicates
Procedure: as §4

T1 sequence (P16257 whole entry): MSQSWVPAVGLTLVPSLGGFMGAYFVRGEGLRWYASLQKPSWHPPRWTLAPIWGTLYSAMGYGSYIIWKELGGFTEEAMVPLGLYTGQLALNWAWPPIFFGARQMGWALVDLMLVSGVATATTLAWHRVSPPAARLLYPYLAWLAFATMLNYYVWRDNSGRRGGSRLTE
Sequence of TSPO-WT (HAB) (P30536 whole entry T147A): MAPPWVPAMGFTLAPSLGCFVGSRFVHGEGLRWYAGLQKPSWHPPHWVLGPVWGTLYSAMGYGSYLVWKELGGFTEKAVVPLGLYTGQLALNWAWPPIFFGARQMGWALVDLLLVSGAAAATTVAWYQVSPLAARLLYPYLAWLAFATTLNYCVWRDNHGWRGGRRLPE
Sequence of TSPO-mutant A147T (LAB) (P30536 whole entry, stated change not applied): as the sequence (P30536 whole entry T147A) above, with A147T counted along it

CCCN(CCC)C(=O)Cc1c(-c2ccc(F)cc2)nc2c(Cl)cc(Cl)cn12 [BS224]
Ki [1]: > 100000 nM
Ki [2]: 0.51 ± 0.03 nM
IC50 [3]: 590 ± 40 nM
IC50 [4]: 450 ± 20 nM

CCCN(CCC)C(=O)Cc1c(-c2ccc(OCCF)cc2)nc2c(Cl)cc(Cl)cn12 [CB251]
Ki [1]: > 100000 nM

CN1C(=O)CN=C(c2ccccc2F)c2cc([N+](=O)[O-])ccc21 [Flunitrazepam]
Ki [1]: 6.2 ± 0.1 nM

CCC(C)N(C)C(=O)c1cc2ccccc2c(-c2ccccc2Cl)n1 (stereo not drawn) [PK 11195]
Ki [1]: > 100000 nM
effect on [^18F]BS224 radioactivity in brain slices (blocking) [5]: significant reduction of radioactivity

CCCN(CCC)C(=O)Cc1c(-c2ccc([18F])cc2)nc2c(Cl)cc(Cl)cn12 [[^18F]BS224, 2-(-2-(4-[^18F]fluorophenyl)-6,8-dichloro-imidazo[1,2-a]pyridin-3-yl)-N,N-dipropylacetamide]
skull uptake ([6]; LPS model PET): not observed
BPND ([6]; LPS model, SRTM, contralateral side as reference): 1.43 ± 0.17
parent compound remained intact in human serum [7]: over 99%
% in heart, Parent (30 min): Intact
% in kidneys, Parent (30 min): Intact
% in liver, Parent (30 min): 73.6% and 73.6 ± 5.9%
% in lung, Parent (30 min): Intact
% in plasma, Parent (30 min): 90.7 ± 0.8%
% in brain, Parent (30 min after i.v. injection, rat): Intact
% in heart, Parent (90 min): Intact
% in kidneys, Parent (90 min): Intact
% in liver, Parent (90 min): 53.1% and 53.1 ± 2.7%
% in lung, Parent (90 min): Intact
% in plasma, Parent (90 min): 69.2 ± 2.9%
% in brain, Parent (90 min after i.v. injection, rat): Intact
radioactivity in the femur (in vivo defluorination) (gamma counting, rat): no radioactivity could be detected
fraction unbound at 10 min, 1.19 MBq/mL [8]: 0.064 ± 0.003
fraction unbound at 10 min, 1.19 MBq/mL [9]: 0.049 ± 0.005
AUC Brain [10]: 201.75±19.25 %ID/g min
AUC Heart [10]: 442.73±84.59 %ID/g min
AUC Intestine [10]: 250.45±7.71 %ID/g min
AUC Kidney [10]: 1345.08±260.65 %ID/g min
AUC Liver [10]: 1102.68±140.38 %ID/g min
AUC Lung [10]: 403.48±82.21 %ID/g min
AUC Stomach [10]: 198.98±53.18 %ID/g min
AUC Urinary Bladder [10]: 91.44±21.23 %ID/g min
Cmax Brain [10]: 5.78±1.51 %ID/g
Cmax Heart [10]: 20.81±8.05 %ID/g
Cmax Intestine [10]: 3.66±0.19 %ID/g
Cmax Kidney [10]: 16.33±3.08 %ID/g
Cmax Liver [10]: 16.21±1.95 %ID/g
Cmax Lung [10]: 14.38±5.88 %ID/g
Cmax Stomach [10]: 3.12±0.81 %ID/g
Cmax Urinary Bladder [10]: 1.35±0.22 %ID/g
Tmax Brain [10]: 1.83 ± 0.68 min
Tmax Heart [10]: 0.83 ± 0.20 min
Tmax Intestine [10]: 38.96 ± 21.39 min
Tmax Kidney [10]: 64.38 ± 16.21 min
Tmax Liver [10]: 38.29 ± 20.60 min
Tmax Lung [10]: 0.71 ± 0.24 min
Tmax Stomach [10]: 41.88 ± 23.30 min
Tmax Urinary Bladder [10]: 45.94 ± 14.36 min
skull uptake ([11]; ischemic stroke model PET): not observed
BPND ([11]; ischemic stroke model, SRTM, contralateral side as reference): 1.57 ± 0.37
logD ([12]; pH 7.4, Log D (single measurements 1-5), n-octanol/PBS pH 7.4, individual replicates): 2.78
logD ([12]; pH 7.4, Log D, n-octanol/PBS pH 7.4, 25 °C, average n = 5): 2.78 ± 0.04
Effective dose (estimated whole-body human) ([13]; extrapolated from normal mouse data): 5.18 μSv/MBq and 05.18 ± 1.03 μSv/MBq
Estimated Human Absorbed Dose, Adrenals ([13]; from normal mouse data): 09.66 ± 2.52 µGy/MBq
Estimated Human Absorbed Dose, Brain ([13]; from normal mouse data): 04.87 ± 0.90 µGy/MBq
Estimated Human Absorbed Dose, Breast ([13]; from normal mouse data): 02.28 ± 0.60 µGy/MBq
Estimated Human Absorbed Dose, Colon wall ([13]; from normal mouse data): 02.79 ± 0.55 µGy/MBq
Estimated Human Absorbed Dose, ET region ([13]; from normal mouse data): 00.75 ± 0.14 µGy/MBq
Estimated Human Absorbed Dose, Endosteum (bone surface) ([13]; from normal mouse data): 00.91 ± 0.19 µGy/MBq
Estimated Human Absorbed Dose, Eye lenses ([13]; from normal mouse data): 00.52 ± 0.09 µGy/MBq
Estimated Human Absorbed Dose, Gallbladder wall ([13]; from normal mouse data): 14.98 ± 3.89 µGy/MBq
Estimated Human Absorbed Dose, Heart wall ([13]; from normal mouse data): 10.54 ± 3.14 µGy/MBq
Estimated Human Absorbed Dose, Kidneys ([13]; from normal mouse data): 26.23 ± 8.91 µGy/MBq
Estimated Human Absorbed Dose, Liver ([13]; from normal mouse data): 28.88 ± 7.70 µGy/MBq
Estimated Human Absorbed Dose, Lung ([13]; from normal mouse data): 07.99 ± 2.42 µGy/MBq
Estimated Human Absorbed Dose, Lymphatic nodes ([13]; from normal mouse data): 02.60 ± 0.55 µGy/MBq
Estimated Human Absorbed Dose, Muscle ([13]; from normal mouse data): 00.77 ± 0.17 µGy/MBq
Estimated Human Absorbed Dose, Oesophagus ([13]; from normal mouse data): 03.90 ± 1.04 µGy/MBq
Estimated Human Absorbed Dose, Oral mucosa ([13]; from normal mouse data): 00.50 ± 0.09 µGy/MBq
Estimated Human Absorbed Dose, Pancreas ([13]; from normal mouse data): 07.79 ± 1.88 µGy/MBq
Estimated Human Absorbed Dose, Prostate ([13]; from normal mouse data): 00.43 ± 0.05 µGy/MBq
Estimated Human Absorbed Dose, Red (active) bone marrow ([13]; from normal mouse data): 02.01 ± 0.45 µGy/MBq
Estimated Human Absorbed Dose, Salivary glands ([13]; from normal mouse data): 00.49 ± 0.09 µGy/MBq
Estimated Human Absorbed Dose, Skin ([13]; from normal mouse data): 00.54 ± 0.12 µGy/MBq
Estimated Human Absorbed Dose, Small intestine wall ([13]; from normal mouse data): 07.30 ± 0.29 µGy/MBq
Estimated Human Absorbed Dose, Spleen ([13]; from normal mouse data): 02.90 ± 0.71 µGy/MBq
Estimated Human Absorbed Dose, Stomach wall ([13]; from normal mouse data): 09.06 ± 3.12 µGy/MBq
Estimated Human Absorbed Dose, Testes ([13]; from normal mouse data): 00.06 ± 0.00 µGy/MBq
Estimated Human Absorbed Dose, Thymus ([13]; from normal mouse data): 01.88 ± 0.52 µGy/MBq
Estimated Human Absorbed Dose, Thyroid ([13]; from normal mouse data): 00.95 ± 0.25 µGy/MBq
Estimated Human Absorbed Dose, Urinary bladder wall ([13]; from normal mouse data): 09.46 ± 2.73 µGy/MBq
Log D (single measurements 1-5) [14]: 2.754 and 2.735
